Data as given in patent publication US20230242616A1, “CHEMOKINE-SELECTIVE CXCR4 ECTODOMAIN-DERIVED (POLY)PEPTIDE” (Ludwig-Maximilians-Universität München, priority 2020, published 2023).
“And” between values parts separate entries of the source, which are not always exact repeats. Equal entries are not always repeated.

What was measured:
mouse MIF = mouse MIF (Mus musculus, UniProt P34884); assay: Dot blot with TAMRA-msR4M-L1, human versus mouse MIF; format: binding
Method: Dot blot. […] Non-specific binding was blocked with Tris-buffered saline (TBS), pH 7.4, containing 0.1% Tween-20 (TBS-T) and 1% BSA. […] Fluorescence intensities were measured at 600 nm using an Odyssey® Fc imager (LICOR Biosciences, Bad Homburg, Germany). The total intensity of each spot was automatically corrected by the individual background signal.

[1] = system: primary mouse spleen B lymphocytes; assay: Transwell chemotaxis of B cells elicited by MIF; format: cell-based; details: 16 nM MIF
Method: (§1) Chemotaxis analysis of murine B cells. A Transwell-based assay was used as described previously^34. Briefly, splenic B cells were isolated by negative depletion using a Pan B Cell Isolation Kit (Miltenyi Biotec. Bergisch Gladbach, Germany). Purity of the cells was between 95 and 99%. […] Chemotaxis was followed for 4 h at 37° C. in a humidified atmosphere of 5% CO2. Migrated cells were counted by flow cytometry using CountBright™ Absolute Counting Beads (Molecular Probes-Invitrogen).

[2] = system: primary mouse spleen B lymphocytes; assay: Transwell chemotaxis of B cells elicited by CXCL12; format: cell-based
Method: as §1

[3] = system: human cardiomyocytes (HCM), pAMPK; assay: MIF-triggered AMPK signaling in cardiomyocytes (MIF/CD74); format: cell-based; details: 16 nM MIF; 1- and 5-fold excess
Method: CD74 signaling in human cardiomyocytes. Before stimulation, medium was replaced by fresh myocyte basal medium containing 0.05% FCS and HCMs rested for 16 h. Surface CD74 expression on HCMs was verified by flow cytometry (FITC-conjugated anti-human CD74, FITC-IgG2 (isotype control) (BD Pharmingen), 1 h/4° C. in the dark, BD FACSVerse™ flow cytometer, FlowJo software). […] After treatment, cells were lysed and subjected to SDS-PAGE/Western blotting. […] Anti-rabbit horseradish peroxidase (HRP)-conjugated antibody (1:10000, GE Healthcare, Freiburg, Germany) was used for development and signals quantitated by chemiluminescence using an Odyssey® Fc imager.

[4] = system: primary human monocyte-derived macrophages; assay: Dil-LDL uptake / foam cell formation, MIF-mediated; format: cell-based
Method: Dil-LDL uptake/foam cell formation. […] After washing with imaging solution (MEM without phenol red containing 30 mM HEPES, 0.5 g/L NaHCO3, pH 7.4, and 0.2% BSA), cells were exposed to 50 μg/mL 1,1′-dioctadecyl-3,3,3′3′-tetra-methylindocarbocyanine-labeled LDL (Dil-LDL) for 30 min at 4° C. followed by incubation at 37° C. for 20 min. Cells were washed with ice-cold imaging solution (pH 3.5), fixed, and counter-stained with Hoechst 33258.

human monocytes = assay: 3D migration of monocytes elicited by CXCL12; format: cell-based; details: 5-fold molar excess
Text: Isolation of human peripheral blood-derived monocytes. Human peripheral blood-derived monocytes were isolated as described^14. Briefly, blood was collected from healthy donors or buffy coat obtained from the blood bank of Munich University Hospital, mixed 1:1 with PBS, and PBMCs isolated by Ficoll-Paque Plus gradient (GE Healthcare). Monocytes were purified by negative depletion using the Monocyte Isolation Kit II (Miltenyi). Monocyte purity was verified by flow cytometry using an anti-CD14 antibody (Miltenyl) and was 95-98%. […] The isolation of PBMCs from donor blood was approved by the local ethics committee of LMU Munich. 3D migration of human peripheral blood-derived monocytes by time-lapse microscopy. The 3D-migration behavior of human monocytes was assessed by time-lapse microscopy and individual cell tracking using the 3D chemotaxis μ-Slide system from Ibidi GmbH (Munich, Germany), adapting the established Ibidi dendritic cell protocol for human monocytes. […] Cell motility was monitored performing time-lapse imaging every 1 min at 37° C. for 2 h using a Leica inverted DMi8-Life Cell Imaging System equipped with a DMC2900 Digital Microscope Camera with CMOS sensor and live cell-imaging software (Leica Microsystems, Wetzlar, Germany). Images were imported as stacks to ImageJ software and analyzed with the manual tracking and chemotaxis/migration tools (Ibidi GmbH).

[5] = system: MonoMac-6 monocytes on human aortic endothelial cells (HAoECs); assay: Static monocyte adhesion, MIF-induced; format: cell-based; details: 16 nM MIF, 320 nM peptide
Method: Static monocyte adhesion. HAoECs were seeded at a density of 30.000 cells/well in 6 well μ-Ibidi Perfusion slides VI 0.4 (Ibidi GmbH). […] After perfusion of the chambers with fresh medium, MonoMac6 cells (1×10^6 cells/mL) in PromoCell medium were added for 30 min. Non-adhering cells were flushed away by gentle perfusion using a 30 mL syringe. To quantify adherent monocytes, 10 individual images from each treatment were acquired using a Leica DMi8 inverted microscope with a 10× objective and cells quantified using Image J.

[6] = system: carotid arteries of Apoe−/− mice; assay: Leukocyte adhesion in atherogenic carotid arteries ex vivo under flow; parameters: species or system mouse; details: injection three days before vessel preparation; physiological flow
Method: Fluos-msR4M-L1 staining and monocyte adhesion in atherosclerotic carotid arteries by multiphoton microscopy. Monocyte adhesion experiments in atherosclerotic carotid arteries under physiological flow conditions ex vivo have been established^14, 70. Seven-week-old Apoe^−/− mice were fed a Western-type HFD (0.2% cholesterol) for 12 weeks. […] On day 3, arteries were prepared and mounted into an arteriograph chamber as described^70. […] Mouse leukocytes isolated from the bone marrow of msR4M-L1- or vehicle-treated atherogenic Apoe^−/− mice were stained with fluorescent Green CMFDA or Red CMPTX (Thermo Fisher Scientific). […] The red- and green-stained cell pools were mixed at a 1:1 ratio and 3×10^6 cells in 6 mL perfused into the artery of msR4M-L1- or vehicle-treated mice, respectively. Arteries were scanned by MPM using a multispectral TCS SP8 DIVE instrument with filter-free 4TUNE NDD detection module (Leica) and the number of adherent and transmigrated leukocytes determined by scanning multi-photon excitation. Vessel structure (and plaques) were visualized by second harmonic generation (SHG).

Apoe−/− mice on HFD = assay: Cytokine array on plasma of treated mice; format: in vivo, mouse; details: reductions for IFN-γ, IL-1α, IL-16, TNF-α, CXCL13/BLC
Method: Cytokine array. Cytokine/chemokine profiling was performed from plasma samples of msR4M-L1-versus vehicle-treated Apoe^−/− mice using mouse cytokine array panel A (R&D Systems, ARY006) according to the manufacturer's instructions. Plasma samples were diluted (1:10) in array buffer; incubated with antibody detection cocktail for 1 h at RT, exposed to the blocked membranes (overnight, 4° C.), membranes washed and incubated with streptavidin-HRP conjugate working solution (30 min, RT). Membranes were developed with Chemi-Reagent Mix and analyzed by Odyssey® Fc imager. The average signal (pixel density) of duplicate spots was quantified by ImageJ.

Compound: CC[C@H](C)[C@H](NC(=O)[C@H](Cc1ccc(O)cc1)NC(=O)[C@H](CCCNC(=N)N)NC(=O)[C@H](CC(=O)O)NC(=O)CCCCCCCCCCCNC(=O)CCCCCNC(=O)[C@H](CCCCN)NC(=O)[C@H](CS)NC(=O)[C@H](CC(C)C)NC(=O)[C@H](Cc1ccccc1)NC(=O)[C@H](CC(N)=O)NC(=O)CNC(=O)[C@H](Cc1ccccc1)NC(=O)[C@H](Cc1ccc(O)cc1)NC(=O)[C@H](Cc1c[nH]c2ccccc12)NC(=O)[C@H](CC(N)=O)NC(=O)[C@H](C)NC(=O)[C@@H](NC(=O)[C@H](C)NC(=O)[C@@H](N)CC(=O)O)C(C)C)C(=O)N[C@@H](CS)C(=O)N[C@@H](CC(=O)O)C(=O)N[C@@H](CCCNC(=N)N)C(=O)N[C@@H](Cc1ccccc1)C(=O)N[C@@H](Cc1ccc(O)cc1)C(=O)N1CCC[C@H]1C(=O)N[C@@H](CC(N)=O)C(=O)N[C@@H](CC(=O)O)C(=O)N[C@@H](CC(C)C)C(=O)N[C@@H](Cc1c[nH]c2ccccc12)C(=O)N[C@H](C(N)=O)C(C)C [msR4M-L1]
- binding to human versus mouse MIF on dot blot (mouse MIF): binds equally well to human and mouse MIF
- inhibition of MIF-mediated B-cell chemotaxis [1]: fully blocked
- molar excess over MIF at maximal inhibition [1]: 5 -fold molar excess
- IC50 ([1]; read-out: IC50 of MIF-mediated B-lymphocyte chemotaxis): 0.01 µM and 0.01 to 0.015 µM
- effect on CXCL12-elicited B-cell chemotaxis [2]: unable to inhibit chemotaxis elicited by CXCL12
- effect on MIF-upregulated pAMPK levels [3]: not attenuated
- effect on MIF-mediated Dil-LDL uptake ([4]; 80 nM MIF): dose-dependently inhibited
- inhibitory capacity compared with established MIF inhibitors ([4]; Dil-LDL uptake): slightly better than that of ISO-1, but lower than that or NIH/IIID.9
- effect on CXCL12-induced cell motility (human monocytes): remained unaffected
- effect on MIF-induced static monocyte adhesion [5]: ablated the pro-adhesion effect of MIF
- number of adhering leukocytes [6]: significantly reduced the number of adhering leukocytes
- circulating inflammatory cytokine levels (Apoe−/− mice on HFD): marked reduction
